This note sets out measurements from patent US20240308992A1 (Biopolar Youtang(Guangdong) Pharmaceutical Co., Ltd., priority 2021, published 2024).

The structures appear in SMILES notation. Some results are limits rather than exact numbers.

The assay concerns the target T1, Drak2 (Homo sapiens, UniProt O94768).
T1 sequence (O94768 1-372): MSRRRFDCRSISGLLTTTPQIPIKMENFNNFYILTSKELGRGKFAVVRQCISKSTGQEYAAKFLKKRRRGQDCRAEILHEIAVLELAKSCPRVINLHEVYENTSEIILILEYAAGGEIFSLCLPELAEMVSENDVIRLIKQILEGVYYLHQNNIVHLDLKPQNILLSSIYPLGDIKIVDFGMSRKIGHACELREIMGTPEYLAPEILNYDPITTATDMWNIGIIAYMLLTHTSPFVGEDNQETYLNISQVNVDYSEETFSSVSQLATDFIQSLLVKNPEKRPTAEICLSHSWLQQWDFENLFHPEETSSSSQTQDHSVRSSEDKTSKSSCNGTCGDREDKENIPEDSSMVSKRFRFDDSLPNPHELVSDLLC
The experiment in a line: Drak2 activity test, ADP-Glo kinase assay (Promega). The format is biochemical. The settings on record: inhibition of Drak2 kinase activity, 2 h room temperature, activity range classes, read-out: IC50_Drak2. For orientation: In ADP-Glo the light output rises with the ADP produced.
For `COc1cc(-c2cncc(-c3cc(NC(=O)CC4CC(F)(F)C4)cs3)n2)ccc1C(=O)N(C)C1CCN(C)CC1` [Example B83, 4-(6-(4-(2-(3,3-difluorocyclobutyl)acetamido)thiophen-2-yl)pyrazin-2-yl)-2-methoxy-N-methyl-N-(1-methylpiperidin-4-yl)benzamide], the IC50 was 11 to 100 nM.

Turning to `COc1ccc(-c2cncc(-c3cc(NC(=O)C4CC4)cs3)n2)cc1OC` [Example A6, N-(5-(6-(3,4-dimethoxyphenyl)pyrazin-2-yl)thiophen-3-yl)cyclopropanecarboxamide], the IC50 lay in the range of 101 to 1000 nM.

Turning to `CCCCC(=O)Nc1csc(-c2cncc(-c3ccc(F)c(F)c3)n2)c1` [Example A27, N-(5-(6-(3,4-difluorophenyl)pyrazin-2-yl)thiophen-3-yl)pentanamide], the IC50 was in the range of 1000 to 10000 nM.

`O=C(CC1CCC1)Nc1csc(-c2cncc(-c3ccnc4[nH]ccc34)n2)c1` [Example 209, N-(5-(6-(1H-pyrrolo [2,3-b]pyridin-4-yl)pyrazin-2-yl)thiophen-3-yl)-2-cyclobutylacetamide]: the IC50 was in the range of 11 to 100 nM.

Consider `O=C(CC1CCC1)Nc1csc(-c2cncc(-c3ccc4cn[nH]c4c3)n2)c1` [Example A52, N-(5-(6-(1H-indazol-6-yl)pyrazin-2-yl)thiophen-3-yl)-2-cyclobutylacetamide], for which the IC50 was 11 to 100 nM.

On to `COc1cc(-c2cncc(-c3cc(NC(=O)CC4CCCC4)cs3)n2)ccc1C(=O)N1CCOCC1` [Example B33, 2-cyclopentyl-N-(5-(6-(3-methoxy-4-(morpholine-4-carbonyl)phenyl)pyrazin-2-yl)thiophen-3-yl)acetamide], for which the IC50 fell in the range of 11 to 100 nM.

`CCCCC(=O)Nc1csc(-c2cncc(-c3cccc(O)c3)n2)c1` [Example 197, N-(5-(6-(3-hydroxyphenyl)pyrazin-2-yl)thiophen-3-yl) pentanamide]: the IC50 lay in the range of 11 to 100 nM.

Turning to `COc1cc(-c2cncc(-c3cc(NC(=O)CC4CC4)cs3)n2)ccc1CN1CCOCC1` [Example B34, 2-cyclopropyl-N-(5-(6-(3-methoxy-4-(morpholinomethyl)phenyl)pyrazin-2-yl)thiophen-3-yl)acetamide], the IC50 lay within 101 to 1000 nM.

As to `COc1cc(-c2cncc(-c3cc(NC(=O)CC4CCC4)cs3)n2)ccc1OCCN1CCOCC1` [Example 169, 2-cyclobutyl-N-(5-(6-(3-methoxy-4-(2-morpholinylethoxy)phenyl)pyrazin-2-yl)thiophen-3-yl) acetamide], the IC50 lay in the range of 11 to 100 nM.

Regarding `CCCCC(=O)Nc1csc(-c2cncc(-c3ccc(C4(O)COC4)c(OC)c3)n2)c1` [Example A35, N-(5-(6-(4-(3-hydroxyoxetan-3-yl)-3-methoxyphenyl)pyrazin-2-yl)thiophen-3-yl)pentanamide], the IC50 was in the range of 11 to 100 nM.

Turning to `CCCCC(=O)Nc1csc(-c2cncc(-c3cn(C)nc3C)n2)c1` [Example 216, N-{5-[6-(1,3-dimethylpyrazol-4-yl)pyrazin-2-yl]thiophen-3-yl}pentanamide], the IC50 was less than 10 nM.

As for `COc1cc(-c2cncc(-c3cc(NC(=O)CC4CC4)cs3)n2)ccc1C(=O)N1CCN(C2CCN(C)CC2)CC1` [Example B50, 2-cyclopropyl-N-(5-(6-(3-methoxy-4-(4-(1-methylpiperidin-4-yl)piperazine-1-carbonyl)phenyl)pyrazin-2-yl)thiophen-3-yl)acetamide], the IC50 is 11 to 100 nM.

As to `COc1ccc(-c2cncc(NC3CCC(NC(=O)C4CCC4)CC3)n2)cc1OC` (centres unmarked) [Example D2, N-(4-((6-(3,4-dimethoxyphenyl)pyrazin-2-yl)amino)cyclohexyl)cyclobutanecarboxamide], the IC50 is more than 10000 nM.

For `CCCCC(=O)Nc1csc(-c2cncc(-c3ccc(C(N)=O)c(OC)c3)n2)c1` [Example B3, 2-methoxy-4-(6-(4-pentanamidothiophen-2-yl)pyrazin-2-yl)benzamide], the IC50 was in the range of 101 to 1000 nM.

Turning to `CC(C)n1ccc2c(-c3cncc(-c4cc(NC(=O)CC5CCC5)cs4)n3)ccnc21` [Example 210, 2-Cyclobutyl-N-(5-{6-[1-(propyl-2-yl)pyrrolo [2,3-b]pyridin-4-yl]pyrazin-2-yl}thiophen-3-yl) acetamide], the IC50 lay within 101 to 1000 nM.

On to `COc1cc(-c2cncc(-c3cc(NC(=O)CC4CCC4)cs3)n2)ccc1C(=O)NO` [Example B98, 4-(6-(4-(2-cyclobutylacetamido)thiophen-2-yl)pyrazin-2-yl)-N-hydroxy-2-methoxybenzamide], for which the IC50 was less than 10 nM.

In the case of `COc1cc(-c2cncc(-c3cc(NC(=O)CC4CCCC4)cs3)n2)ccc1C(=O)N(C)C1CCN(C)CC1` [Example B61, 4-(6-(4-(2-cyclopentylacetamido)thiophen-2-yl)pyrazin-2-yl)-2-methoxy-N-methyl-N-(1-methylpiperidin-4-yl)benzamide], the IC50 was 11 to 100 nM.

On to `COc1ccc(-c2cncc(-c3cc(NC(=O)C4CCC4)cs3)n2)cc1C#N` [Example A22, N-(5-(6-(3-cyano-4-methoxyphenyl)pyrazin-2-yl)thiophen-3-yl)cyclobutanecarboxamide], for which the IC50 is 101 to 1000 nM.

For the compound `CCCCC(=O)Nc1csc(-c2cncc(-c3cc(F)c(C(=O)N(C)C4CCN(C)CC4)c(F)c3)n2)c1` [Example B74, 2,6-difluoro-N-methyl-N-(1-methylpiperidin-4-yl)-4-(6-(4-pentanamidothiophen-2-yl)pyrazin-2-yl)benzamide], the IC50 fell in the range of 101 to 1000 nM.

Consider `CCCCC(=O)Nc1csc(-c2cncc(C3=CCN(S(C)(=O)=O)CC3)n2)c1` [Example D8, N-(5-(6-(1-(methylsulfonyl)-1,2,3,6-tetrahydropyridin-4-yl)pyrazin-2-yl)thiophen-3-yl)pentanamide], for which the IC50 is 1000 to 10000 nM.

Regarding `COc1cc(-c2cncc(-c3cc(NC(=O)CC4CCC4)cs3)n2)ccc1[S+](C)[O-]` (centres unmarked) [Example A47, 2-cyclobutyl-N-(5-(6-(3-methoxy-4-(methylsulfinyl)phenyl)pyrazin-2-yl)thiophen-3-yl)acetamide], the IC50 was in the range of 101 to 1000 nM.

In the case of `CCCCC(=O)Nc1csc(-c2cncc(-c3ccc(C(=O)Nc4ncc[nH]4)c(OC)c3)n2)c1` [Example B5, 2-methoxy-4-(6-(4-pentanamidothiophen-2-yl)pyrazin-2-yl)-N-(1H-imidazol-2-yl) benzamide], the IC50 was in the range of 101 to 1000 nM.

Regarding `CCS(=O)(=O)c1ccc(-c2cncc(-c3cc(NC(=O)CC4CCC4)cs3)n2)cc1OC` [Example A46, 2-cyclobutyl-N-(5-(6-(4-(ethylsulfonyl)-3-methoxyphenyl)pyrazin-2-yl)thiophen-3-yl)acetamide], the IC50 was in the range of 101 to 1000 nM.

`COc1cc(-c2cncc(-c3cc(NC(=O)CC4CC4)cs3)n2)ccc1S(=O)(=O)N(C)C1CCN(C)CC1` [Example B103, 2-cyclopropyl-N-(5-(6-(3-methoxy-4-(N-methyl-N-(1-methylpiperidin-4-yl)sulfamoyl)phenyl)pyrazin-2-yl)thiophen-3-yl)acetamide]: the IC50 is 11 to 100 nM.

For the compound `COc1cc(-c2cncc(-c3cc(NC(=O)CC4CCCC4)cs3)n2)ccc1C(=O)N(C)CCN(C)C` [Example B58, 4-(6-(4-(2-cyclopentylacetamido)thiophen-2-yl)pyrazin-2-yl)-N-(2-(dimethylamino)ethyl)-2-methoxy-N-methylbenzamide], the IC50 was 11 to 100 nM.

With `COc1cc(-c2cncc(-c3cc(NC(=O)CC4CCC4)cs3)n2)ccc1OCCN1CCN(C2CCN(C)CC2)CC1` [Example 177, 2-cyclobutyl-N-(5-{6-[3-methoxy-4-({2-[4-(1-methylhexahydropyridin-4-yl)piperazin-1-yl]ethyl}oxy)phenyl]pyrazin-2-yl}thiophen-3-yl) acetamide], the IC50 is 11 to 100 nM.

As to `COc1cc(-c2cncc(-c3cc(NC(=O)CC4CCC4)cs3)n2)ccc1OCC1CCN(C)CC1` [Example 184, 2-Cyclobutyl-N-(5-(6-(3-methoxy-4-((1-methylpiperidin-4-yl)methoxy)phenyl)pyrazin-2-yl)thiophen-3-yl) acetamide], the IC50 was in the range of 11 to 100 nM.

Regarding `CCCCC(=O)Nc1csc(-c2cncc(-c3ccc(C(=O)Nc4nnco4)c(OC)c3)n2)c1` [Example B23, 2-methoxy-4-(6-(4-pentanamidothiophen-2-yl)pyrazin-2-yl)-N-(1,3,4-oxadiazol-2-yl)benzamide], the IC50 was 11 to 100 nM.

For `COc1cc(-c2cncc(-c3cc(NC(=O)CC4CC(OCc5ccccc5)C4)cs3)n2)ccc1C(=O)N(C)C1CC2(C1)CN(C)C2` (centres unmarked) [Example 207, 4-(6-(4-(2-(3-(benzyloxy)cyclobutyl)acetylamino)thiophen-2-yl)pyrazin-2-yl)-2-methoxy-N-methyl-N-(2-methyl-2-azaspiro [3.3]heptane-6-yl) benzamide], the IC50 is 11 to 100 nM.

Turning to `CCCCC(=O)Nc1csc(-c2ccnc(-c3ccc(C(=O)N(C)C4CCN(C)CC4)c(OC)c3)n2)c1` [Example D5, 2-methoxy-N-methyl-N-(1-methylpiperidin-4-yl)-4-(4-(4-pentanamidothiophen-2-yl)pyrimidin-2-yl)benzamide], the IC50 was in the range of 1000 to 10000 nM.

On to `CCCCC(=O)Nc1csc(-c2cncc(-c3ccc(-c4nc(=O)o[nH]4)c(OC)c3)n2)c1` [Example A39, N-(5-(6-(3-methoxy-4-(5-oxo-2,5-dihydro-1,2,4-oxadiazol-3-yl)phenyl)pyrazin-2-yl)thiophen-3-yl)pentanamide], for which the IC50 is 101 to 1000 nM.

In the case of `COc1cc(-c2cncc(-c3cc(NC(=O)CC4CCC4)cs3)n2)ccc1C(=O)N(C)C1CCN(C2CC2)CC1` [Example B96, 4-(6-(4-(2-cyclobutylacetamido)thiophen-2-yl)pyrazin-2-yl)-N-(1-cyclopropylpiperidin-4-yl)-2-methoxy-N-methylbenzamide], the IC50 was in the range of 11 to 100 nM.
